Where a SMILES comes first, the peptide text is derived from it.
Assays:
[1] = biological target: T1, Casp-2 (Homo sapiens, UniProt P42575); assay: Caspase-2 inhibition assay for reversible inhibitors (IC50, Ki, dilution method); assay type: biochemical; conditions: for IC50: 30 minutes at 37° C. preincubation; for Ki: secondary plot of Lineweaver-Burk
T1 construct: the Caspase-2 and Caspase-3 are human recombinant active enzymes; purchased Enzo Life ALX-201-057-U100
T1 sequence (P42575 170-325 limits assumed): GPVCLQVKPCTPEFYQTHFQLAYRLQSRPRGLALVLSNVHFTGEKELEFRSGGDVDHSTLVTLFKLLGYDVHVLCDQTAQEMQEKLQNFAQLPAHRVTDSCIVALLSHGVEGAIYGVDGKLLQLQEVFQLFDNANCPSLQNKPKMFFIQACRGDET
T1 sequence (P42575 348-452 limits assumed): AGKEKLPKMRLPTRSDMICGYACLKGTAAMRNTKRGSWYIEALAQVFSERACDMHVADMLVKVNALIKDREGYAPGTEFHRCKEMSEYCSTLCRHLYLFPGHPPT
Experimental: (§1) A preliminary step in the characterization of an inhibitor is the determination of its IC50. The IC50 is the necessary concentration of an inhibitor to decrease the enzyme activity by 50% of its maximum and uninhibited value.
(§2) The compound, at different concentrations, is incubated with the enzyme and buffer for 30 minutes at 37° C. to allow formation of the Enzyme-Inhibitor complex. The reaction is initiated by addition of buffer and substrate, and then activity is measured over 15 minutes for the determination of initial velocities.
(§3) The enzyme and the inhibitor (or DMSO as control) are incubated for 30 minutes at 37° C. The complex thus formed is diluted to 100th in the buffer/substrate mixture and then the activity measurement is started over 20 minutes. The initial rate obtained for the DMSO represents the 100% activity and will serve as a reference for the quantification of the residual activity of the enzyme in the presence of the inhibitor.
(§4) The reaction is started over 20 minutes upon addition of the buffer-substrate mixture.
(§5) Initial velocity values in RFU·min^−1 are reduced to Specific Activity (SA)values (pmol/min/μg enzyme) from an AMC standard range (1 RFU→0.02 pmol).
(§6) The evolution of the ratio 1/SA as a function of 1/[S] makes it possible to obtain the so-called double-inverse graph of Lineweaver-Burk from equation 4 (eq.4) where Vmaxapp and KMapp are the parameters which vary according to the type inhibition and as a function of inhibitor concentration. The intersection of the lines obtained for increasing inhibitor concentrations makes it possible to distinguish different types of inhibitors.
A secondary graph, obtained from the values of the slopes of the Lineweaver-Burk plot as a function of the concentration of inhibitor, makes it possible to obtain the value of the Ki. Its value is given by the abscissa point at the origin.
The initial velocity V0 is expressed from equation 8 (eq.8), where Vmax is the maximum reaction rate (reached when the enzyme is saturated with substrate), [S] the substrate concentration, KM is the Michaelis-Menten constant (substrate concentration corresponding to Vmax/2), Ki is the dissociation constant which accounts for the affinity of the inhibitor for the enzyme.

[2] = biological target: T2, Caspase-3 (Homo sapiens, UniProt P42574); assay: Caspase-3 inhibition assay for reversible inhibitors (IC50, Ki); assay type: biochemical
T2 construct: the Caspase-2 and Caspase-3 are human recombinant active enzymes; purchased R&D Systems 707-C3-010/CF
T2 sequence (P42574 29-175 limits assumed): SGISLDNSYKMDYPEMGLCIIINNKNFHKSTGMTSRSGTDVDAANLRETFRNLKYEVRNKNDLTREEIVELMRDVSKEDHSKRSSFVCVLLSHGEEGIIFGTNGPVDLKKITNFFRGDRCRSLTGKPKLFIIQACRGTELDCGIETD
T2 sequence (P42574 176-277 limits assumed): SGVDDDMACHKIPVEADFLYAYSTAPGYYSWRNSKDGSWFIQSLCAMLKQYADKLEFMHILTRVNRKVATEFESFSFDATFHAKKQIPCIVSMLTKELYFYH
Experimental: as §1, §2, §3, §4, §5, §6
A secondary graph, obtained from the values of the slopes of the Lineweaver-Burk plot as a function of the concentration of inhibitor, makes it possible to obtain the value of the Ki. Its value is given by the abscissa point at the origin. […]

[3] = biological target: T3, Caspase-2 (Homo sapiens, UniProt P42575); assay: Caspase-2 inhibition assay for irreversible inhibitors (kinact/KI, continuous method); assay type: biochemical
T3 construct: the Caspase-2 and Caspase-3 are human recombinant active enzymes; purchased Enzo Life ALX-201-057-U100
T3 sequence (P42575 170-325 limits assumed): T1 sequence (P42575 170-325 limits assumed)
T3 sequence (P42575 348-452 limits assumed): T1 sequence (P42575 348-452 limits assumed)
Experimental: The efficiency of the comparative compound Δ2Me-TRP601, that is an already known group II Caspase inhibitor (inhibitor of Caspase-2, Caspase-3 and Caspase-7), has been assessed by a similar protocol described in Chauvier et al., 2011 Cell Death Dis 2011, 2:e203.
In this example, the Caspase-2 and Caspase-3 are human recombinant active enzymes that are respectively provided by Enzo Life® (ALX-201-057-U100) and R&D Systems® (707-C3-010/CF).
Caspase-2 is used at a final concentration of 0.1 nM in a “Caspase-2 buffer” containing 20 mM HEPES (pH 7.4), 5 mM DTT, 2 mM EDTA, 0.1% CHAPS and 800 mM succinate. Caspase-3 is used at a final concentration of 0.5 nM in a “Caspase-3 buffer” containing 20 mM HEPES (pH 7.4), 0.1% CHAPS, 5 mM DTT, and 2 mM EDTA.
The peptide substrates used for the enzymatic activity measurements are Ac-DEVD-AMC and Ac-VDVAD-AMC commercialized by EnzoLife® (respectively referenced ALX-260-031-M005 and ALX-260-060-M005). They are fluorogenic due to the presence of their AMC (7-amino-4-methylcoumarin) end group. The releasing of AMC enables to follow the enzymatic activity in fluorescence unit RFU over time in a 96-wells microplate.
The fluorescence values are measured at 37° C. with a spectrofluorometer with a microplate reader BMG FLUOstar OPTIMA. This apparatus is driven by the software Biolise® and is equipped with thermoelectric cooling device by Peltier effect. The mathematical analyses of the experimental data are done with the software Kaleidagraph®.
The inhibitory properties of the tested compounds are evaluated by the determination of the kinact/KI ratio regarding either Caspase-2 or Caspase-3 wherein: • kinact is the maximal inactivation rate constant, and • KI is the dissociation constant according to:
Said ratio is measured according to the continuous method (Allison R D. Curr Protoc Protein Sci. 2001 May; Chapter 3:Unit 3.5.; Chauvier et al., 2011 Cell Death Dis 2:e203; Tan et al., J Med Chem 2015, […]).
Briefly, Caspases activities were determined by monitoring the hydrolysis of fluorogenic substrates (λexc=355 nm, λem=460 nm) as a function of time, in the presence of untreated Caspases (control) or Caspases that had been incubated with a test compound, for 30 min minimum at 37° C. using a BMG Fluostar microplate reader (black 96-well microplates) and the initial velocity (V0) was determined from the linear portion of the progress curve.
Substrates and compounds were previously dissolved in DMSO at 10 mM, with the final solvent concentration kept at lower 4% (v/v). V0, relative velocities, KM and IC50 were determined from experimental data using Mars data Analysis 2.0 and Kaleidagraph softwares.
Inhibitor binding affinity (dissociation constant, KI) and first-order rate constant (k3) parameters were determined for Caspase-2 and Caspase-3 using the progress curve method. The ratio k3/KI was obtained by fitting the experimental data to the equations (F.U., fluorescence unit): […]
A continuous method of determination of the kinact/KI ratio was used for evaluating the inhibitory activity of the tested compounds against Caspase-2 and Caspase-3.
The reaction mixture is prepared by letting the enzyme and the buffer incubate at 37° C.
The tested inhibitory compounds are prepared at different concentrations (¼ IC50; ½ IC50; IC50; 2 IC50; 4 IC50) and put in the microplate.
Then the reaction mixture comprising the enzyme, the buffer and the substrate is rapidly added in the wells.
The activities of the enzyme are measured between 45 and 60 minutes.
The RFU (Relative Fluorescence Units)=f(times) curves are traced for each concentration of tested molecule according to the following equation: ((((−V0)*(exp(−kobs*m0)))+V0)/kobs*)+RFU0
in which: • V0 corresponds to the initial rate (RFU·s^−1) in the concentration of 0 of the tested inhibitory compound; • kobs is the inactivation rate constant; • RFU0 is the fluorescence value at t=0 min; and • m0 is the variable i.e. the inhibitor concentration.

[4] = system: hippocampal neurons intoxicated with Aβ1-42 oligomers; assay: Protection against Abeta neurotoxicity in primary hippocampal neurons in microfluidic chambers; assay type: cell-based, mice; conditions: Aβ intoxicated cells not pretreated, 6 h of intoxication, vs non-intoxicated
Text: Hippocampus are micro-dissected from E16 embryos of C57B16/J wt mice (Rene Janvier, France) in cold Gey's Balanced Salt Solution (GBSS, Sigma) supplemented with 0.1% glucose (Life technologies).
Dissected structures are digested with papain (20 U/ML in DMEM, Sigma; St. Louis, Mo., USA) and mechanically dissociated in the presence of DNAse. Hippocampal cells are then rinsed and re-suspended in DMEM (Life Technologies, Inc., Gaithersburg, Md., USA) to a final density of 18 million cells/ml in Neurobasal (Life technologies) and Glutamax (0.1% LifeTechnologies) supplemented with B27 (1/50) and penicilline/sptreptomycine 1% (Gibco).
This cell suspension is then used to fill the reservoirs of microfluidic chambers, as described (Peyrin et al, 2011 Lab Chips 11(21):3663; Deleglise et al, 2014 Acta Neuropathologica Comm. 2: 145). Microfluidic chips are placed in plastic Petri dishes containing H20-EDTA to prevent evaporation and incubated at 37° C. in a humid 5% CO2 atmosphere. The culture medium is renewed every seven days.
Oligomeric form of Aβ1-42 (Tocris Bioscience, MN, USA), is produced according to Stine W B et al (2003) in J Biol Chem 278, pp 11612-11622 and can be controlled by electron microscopy as in Deleglise B et al. in Acta Neuropathol Commun. 2014; 2: 145).
Briefly, Aβ1-42 lyophilized peptides are solubilized at 1 mM in 1, 1, 1, 3, 3, 3,-hexafluoro-2-propanol (HFIP, Sigma Aldrich). After 30 min of incubation at RT, HFIP is evaporated for 12 h under chemical hood and peptides are dried for 1 h (with a Speed Vac at 4° C.). Then, 5 mM Aβ peptide stock solutions are obtained by resolubilization at in dimethylsulfoxide (DMSO, Sigma Aldrich). To obtain oligomers, Aβ peptide stock solution is diluted in cold phenol free DMEM-F12 medium (Life Technologies) to a final concentration of 100 μM. The solution is then incubated 24 h at 4° C. Soluble Aβ oligomer fraction is collected from the supernatant after a centrifugation step at 20 000 g (10 min; 4° C.), and stored at −80° C. until use.
After 18 days of culture in micro fluidic chambers, hippocampal cells are pre-incubated for 1 h with compounds of the invention prior diluted in phenol free DMEM-F12 medium or in phenol free DMEM-F12 medium alone as a control solution. Cells are then intoxicated for 3 h to 6 h or 24 h with 10 or 100 nm of Aβ1-42 oligomers (or with phenol free DMEM-F12 medium alone as a control solution). After the intoxication step, cells are fixed in 4% paraformaldehyde (PFA, Sigma; St. Louis, Mo., USA) for 20 min RT, and labelled as explained below to evaluate synapses status, cell death or axonal degeneration.
Briefly, after the fixation step, cultures cells are washed twice with PBS+Azide 0.1% for 5 min and permeabilized for 10 min with 0.2% Triton X-100 and 0.1% BSA (Bovine Serum Albumin, Sigma) in PBS+Azide 0.1%. Saturation step is then realized by incubating cells during 30 min in PBS+Azide 0.1%+BSA1%. Primary antibodies are then added and the samples incubated at 4° C. overnight in PBS. Afterwards, samples are rinsed twice for 5 min with PBS+Azide 0.1% and further incubated with the corresponding secondary antibody together with phalloidin conjugated to Alexa Fluor 555 for 2 h RT. The chips were then rinsed twice with PBS+Azide 0.1%.
The following antibodies are used: rabbit polyclonal anti-MAP-2 (AB5622; 1/400, MILLIPORE), mouse monoclonal Anti-Bassoon SAP7F407; 1:400, Enzo LifeSciences). Species-specific secondary antibodies coupled to Alexa 350, 488 or 500 are used (1/500, Life Technologies, Inc., Gaithersburg, Md., USA). Phalloidin conjugated to Alexa Fluor 555 (1/500, EnzoLifeTechnologies) is used to stain F-actin.
Images are acquired with an Axio-observer Zl (Zeiss, Germany) fitted with a cooled CCD camera (CoolsnapHQ2, Ropert Scientific). The microscope is controlled with Metamorph and Micro-manager software. Images were analyzed using ImageJ software.

Question: What does the source list for `CC(=O)N[C@H](C(=O)N[C@@H](CC(=O)O)C(=O)N[C@H](C(=O)N[C@@H](C)C(=O)N[C@H](C=O)CC(=O)O)C(C)C)C(C)C` [Ac-VDVAD-CHO] (Ac-VDVAD-aldehyde)?
Answer: Selectivity Indexes (KiCasp3/KiCasp2) [1]: 1.3; IC50 [1]: 6.9 nM; Ki [1]: 6.31 nM; IC50 ([2]; 30 minutes at 37° C. preincubation): 7.23 nM; Ki ([2]; secondary plot of Lineweaver-Burk): 7.68 nM

Question: With `CC(C)[C@H](NC(=O)c1ccc2ccccc2n1)C(=O)N[C@@H](CC(=O)O)C(=O)N[C@H](C(=O)N1CC[C@H](CC(C)(C)C)[C@H]1C(=O)N[C@@H](CC(=O)O)C(=O)COc1c(F)cccc1F)C(C)C` (single isomer, unassigned) [Compound 2 enantiomer b] as the compound, how does the “k3/KI Casp2” value ([3]; human recombinant Caspase-2 0.1 nM, 37° C.) read?
Answer: 1 720 M^−1 · s^−1

Question: And the “Selectivity ratio (C2/C3) (symbol)” value ([3]; ratio of k3/KI Casp2 to Casp3)?
Answer: +++ (+++: as no inhibitory activity is detectable toward casp3, selectivity is very important (>>1000).)

Question: How did the IC50 [1] turn out when `CC(=O)N[C@@H](CC(=O)O)C(=O)N[C@@H](CCC(=O)O)C(=O)N[C@H](C(=O)N[C@H](C=O)CC(=O)O)C(C)C` [Ac-DEVD-CHO] was run?
Answer: 3910 ± 189 nM

Question: What about the Ki [1] of the same compound?
Answer: 3220 nM

Question: For “Aβ alone: Oligomeric form of Aβ1-42 (Tocris Bioscience) used to intoxicate neurons [reference compound]”, which “decrease in synapse number” value [4] is on record?
Answer: ~50%

Reference: patent US11407741B2, “Compounds and their use as selective inhibitors of caspase-2” (priority 2017, dated 2022)
